Measurements reported in patent US11911388B2, “Treatment for diabetes in patients with insufficient glycemic control despite therapy with an oral or non-oral antidiabetic drug” (Boehringer Ingelheim International GmbH, priority 2008, dated 2024).
“Also recorded” adds a separate entry of the source.

Assays:
db/db mice [1] = experiment: Insulin during OGTT (2 g/kg) on day 59 in db/db mice; assay type: in vivo, mouse; details: 3 mg/kg p.o. daily, day 59, OGTT 2 g/kg, t=15 min
Excerpt: Sulfonylurea (SU) like glibenclamide are one of the most frequently used drugs in diabetes treatment. Long-term treatment with SU causes elevated basal insulin secretion and decreased glucose-stimulated insulin secretion. These characteristics may play an important role for the development of hypoglycemia and secondary drug failure. […] In addition, correlating with age of the animals pancreatic β-cells of aging db/db mice fails to compensate the high glucose excursion with enhanced insulin secretion. Therefore this model is appropriate to study the glibenclamide induced secondary drug failure in comparison to a DPP-4 inhibitor (e.g. BI 1356).
Female db/db mice at 5 weeks of age, are obtained from Charles River, Germany. […]
The compound solutions are administered daily at 08.00 AM on experimental days 0-59 by per oral gavage using a gastric tube connected to a 3 ml syringe (Luer-lock™, Becton). […] Body weight food intake and water intake is recorded daily for the first two and twice weekly for the remaining period. On experimental day 54 blood glucose and HbA1c levels are determined in semi-fed state, on day 59 an OGTT (2 g/kg) is performed.
Blood samples for determination of “fed” levels blood glucose and HbA1c are performed at 10.00 AM on day 54. […] At day 59 an OGTT (2 g/kg) is performed following an over-night fast of the animals and insulin is detected at t=15 min. […]

db/db mice [2] = experiment: HbA1c and blood glucose after 54 day treatment of db/db mice (SU secondary drug failure model); assay type: in vivo, mouse; details: 3 mg/kg p.o. daily, day 54, female db/db mice; for glucose values compared to control: semi-fed
Excerpt: Sulfonylurea (SU) like glibenclamide are one of the most frequently used drugs in diabetes treatment. Long-term treatment with SU causes elevated basal insulin secretion and decreased glucose-stimulated insulin secretion. These characteristics may play an important role for the development of hypoglycemia and secondary drug failure. […] In addition, correlating with age of the animals pancreatic β-cells of aging db/db mice fails to compensate the high glucose excursion with enhanced insulin secretion. Therefore this model is appropriate to study the glibenclamide induced secondary drug failure in comparison to a DPP-4 inhibitor (e.g. BI 1356). Female db/db mice at 5 weeks of age, are obtained from Charles River, Germany. Animals are housed in groups of 5-6 animals under a 12:[…] cycle (lights on at 04:00 AM and lights off at 04:00 PM) in temperature and humidity controlled rooms. All animals have free access to regular rodent chow (Altromin standard #1324 chow, Denmark) and water ad libitum. The compound solutions are administered daily at 08.00 AM on experimental days 0-59 by per oral gavage using a gastric tube connected to a 3 ml syringe (Luer-lockTM, Becton). Groups of 12 animals are used: vehicle, 0.5% Natrosol; BI 1356 3 mg/kg; glibenclamide 3 mg/kg. Body weight food intake and water intake is recorded daily for the first two and twice weekly for the remaining period. On experimental day 54 blood glucose and HbA1c levels are determined in semi-fed state, on day 59 an OGTT (2 g/kg) is performed. Blood samples for determination of “fed” levels blood glucose and HbA1c are performed at 10.00 AM on day 54. Prior to blood sampling animals are transferred to clean cages with no food two hours before blood sampling. At day 59 an OGTT (2 g/kg) is performed following an over-night fast of the animals and insulin is detected at t=15 min. For each data point, 10 μl blood is drawn from the tip of the tail into a microcapillary tube and measured using a Biosen S line glucose analyzer. HbA1c: are measured using a standard enzyme assay kit on a fully automated analyzer (Bayer).

| SMILES | form and route of excretion (human, in vivo) | excretion via the kidney (therapeutic oral dose levels) | increase in insulin during OGTT (db/db mice [1]) | HbA1c compared to control (db/db mice [2]) | glucose values compared to control (db/db mice [2]) |
| --- | --- | --- | --- | --- | --- |
| CC#CCn1c(N2CCC[C@@H](N)C2)nc2c1c(=O)n(Cc1nc(C)c3ccccc3n1)c(=O)n2C [BI 1356] | primarily excreted unchanged via the bile | < 7 % of the administered oral dose | able to respond to the increased glucose levels with an up-regulation of insulin; also recorded: superior to glibenclamide | improves; also recorded: superior to glibenclamide | improves; also recorded: superior to glibenclamide |
| COc1ccc(Cl)cc1C(=O)NCCc1ccc(S(=O)(=O)NC(=O)NC2CCCCC2)cc1 [glibenclamide, reference compound] |  |  |  | impairs | impairs |
